Experiments:
[1] = target: Transmembrane protease serine 2 (Homo sapiens, UniProt O15393); experiment: Inhibition of N-terminal 6His-tagged human recombinant TMPRSS2 (106 to 492 residues) using Boc-QAR-AMC as substrate preincubated for 30 mins followed by substrate addition and measured by fluorescence based analysis
[2] = target: T1, Hepatocyte growth factor activator serine protease (Homo sapiens, UniProt Q04756); experiment: Inhibition of C-terminal 10-His tagged human recombinant HGFA (Gln36 to Ser655 residues) using Boc-QLR-AMC as substrate preincubated for 30 mins followed by substrate addition and measured by fluorescence based analysis
T1 sequence (Q04756 whole entry): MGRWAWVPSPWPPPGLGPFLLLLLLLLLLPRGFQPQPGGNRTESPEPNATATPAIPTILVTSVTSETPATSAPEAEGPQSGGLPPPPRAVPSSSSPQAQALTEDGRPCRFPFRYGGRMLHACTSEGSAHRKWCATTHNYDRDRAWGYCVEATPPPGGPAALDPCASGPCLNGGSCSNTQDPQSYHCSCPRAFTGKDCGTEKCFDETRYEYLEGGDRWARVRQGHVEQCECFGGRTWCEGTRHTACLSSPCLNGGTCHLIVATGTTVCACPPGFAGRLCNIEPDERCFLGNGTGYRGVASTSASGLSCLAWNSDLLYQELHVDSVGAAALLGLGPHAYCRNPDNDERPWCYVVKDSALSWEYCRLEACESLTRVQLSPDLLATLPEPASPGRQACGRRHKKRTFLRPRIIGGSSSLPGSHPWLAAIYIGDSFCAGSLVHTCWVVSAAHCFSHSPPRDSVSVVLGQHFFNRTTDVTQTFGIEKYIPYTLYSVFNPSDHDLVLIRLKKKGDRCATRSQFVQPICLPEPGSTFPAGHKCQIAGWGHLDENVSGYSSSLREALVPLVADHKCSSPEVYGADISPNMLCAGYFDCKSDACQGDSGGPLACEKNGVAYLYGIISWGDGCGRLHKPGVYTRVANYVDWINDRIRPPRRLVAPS

[3] = target: T2, Suppressor of tumorigenicity 14 protein (Homo sapiens, UniProt Q9Y5Y6); experiment: Inhibition of N-terminal Met/6His tagged human recombinant matriptase catalytic domain (Gly596 to Val855 residues) using Boc-QAR-AMC as substrate preincubated for 30 mins followed by substrate addition and measured by fluorescence based analysis
T2 sequence (Q9Y5Y6 whole entry): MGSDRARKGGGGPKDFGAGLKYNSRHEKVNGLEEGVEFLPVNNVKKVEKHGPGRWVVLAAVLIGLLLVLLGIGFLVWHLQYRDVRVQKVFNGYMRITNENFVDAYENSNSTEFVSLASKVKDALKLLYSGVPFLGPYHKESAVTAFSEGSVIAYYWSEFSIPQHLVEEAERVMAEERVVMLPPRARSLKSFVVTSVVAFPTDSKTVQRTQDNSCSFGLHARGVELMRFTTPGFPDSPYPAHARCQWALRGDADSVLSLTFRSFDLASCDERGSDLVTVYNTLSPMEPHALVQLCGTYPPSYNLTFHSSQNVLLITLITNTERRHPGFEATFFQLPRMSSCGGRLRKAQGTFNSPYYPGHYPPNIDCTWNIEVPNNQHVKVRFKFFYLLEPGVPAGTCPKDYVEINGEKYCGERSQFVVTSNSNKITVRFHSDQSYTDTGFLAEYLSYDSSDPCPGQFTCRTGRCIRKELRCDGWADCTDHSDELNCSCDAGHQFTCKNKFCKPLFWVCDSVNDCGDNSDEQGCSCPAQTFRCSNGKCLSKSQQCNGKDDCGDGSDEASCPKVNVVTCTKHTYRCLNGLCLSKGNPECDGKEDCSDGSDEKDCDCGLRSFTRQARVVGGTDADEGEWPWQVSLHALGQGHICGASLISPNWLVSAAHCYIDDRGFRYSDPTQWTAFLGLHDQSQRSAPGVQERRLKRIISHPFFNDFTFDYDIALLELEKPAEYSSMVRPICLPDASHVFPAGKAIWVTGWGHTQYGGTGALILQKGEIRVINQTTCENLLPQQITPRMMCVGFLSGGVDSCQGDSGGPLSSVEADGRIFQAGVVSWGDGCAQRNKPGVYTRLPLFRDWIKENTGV

[4] = Metabolic stability in mouse plasma assessed as compound remaining measured at 2 hrs; format: ADME, cell-free; details: read-out: Stability
[5] = Metabolic stability in human plasma assessed as compound remaining measured at 2 hrs; format: ADME, cell-free; details: read-out: Stability
[6] = Metabolic stability in mouse plasma assessed as half life; format: ADME, cell-free
[7] = Metabolic stability in human plasma assessed as half life; format: ADME, cell-free
[8] = Elimination half life in male CD-1 mouse at 13 to 20 mg/kg, ip administered as single dose and measured upto 24 hrs by LC-MS/MS analysis; format: ADME, organism-based; details: in vivo, dose 13-20 mg/kg
[9] = target: Coagulation factor X, Homo sapiens (UniProt P00742); experiment: Inhibition of factor Xa (unknown origin) using Bz-lle-Glu-Gly-Arg-pNA as chromogenic substrate preincubated for 30 mins followed by substrate addition by absorbance based analysis
Serine protease hepsin = Serine protease hepsin (Homo sapiens, UniProt P05981); experiment: Inhibition of C-terminal 10-His tagged human recombinant hepsin (Arg45 to Leu417 residues) using Boc-QAR-AMC as substrate preincubated for 30 mins followed by substrate addition and measured by fluorescence based analysis
[10] = Metabolic stability in mouse plasma assessed as drug degradation measured after 2 hrs; format: ADME, cell-free
Homo sapiens [11] = species: Homo sapiens; experiment: Selectivity index, ratio of IC50 for inhibition of C-terminal 10-His tagged human recombinant HGFA (Gln36 to Ser655 residues) to IC50 for inhibition of N-terminal 6His-tagged human recombinant TMPRSS2 (106 to 492 residues)
Homo sapiens [12] = species: Homo sapiens; experiment: Selectivity index, ratio of IC50 for inhibition of N-terminal Met/6His tagged human recombinant matriptase catalytic domain (Gly596 to Val855 residues) to IC50 for inhibition of N-terminal 6His-tagged human recombinant TMPRSS2 (106 to 492 residues)
Homo sapiens [13] = species: Homo sapiens; experiment: Selectivity index, ratio of IC50 for inhibition of C-terminal 10-His tagged human recombinant hepsin (Arg45 to Leu417 residues) to IC50 for inhibition of N-terminal 6His-tagged human recombinant TMPRSS2 (106 to 492 residues)
[14] = Half life in male CD-1 mouse at 13 to 20 mg/kg, ip administered as single dose and measured upto 24 hrs by LC-MS/MS analysis; format: ADME, organism-based; details: in vivo, dose 13-20 mg/kg
[15] = Drug uptake in male CD-1 mouse at 13 to 20 mg/kg, ip administered as single dose and measured upto 24 hrs by LC-MS/MS analysis; format: ADME, organism-based; details: in vivo, dose 13-20 mg/kg

Compound | IC50 [1] [nM] | IC50 [3] [nM] | remaining at 2 h [4] [%] | remaining at 2 h [5] [%] | t1/2 [6] [min] | t1/2 [7] [min] | IC50 [9] [µM] | IC50 (Serine protease hepsin) [nM] | also measured
CC(=O)N[C@H]1Cc2ccc(cc2)OC/C=C/C[C@@H](C(=O)N[C@@H](CCCNC(=N)N)C(=O)c2nc3ccccc3s2)NC(=O)[C@H](CC(C)C)NC1=O | 1.2 | 3.4 | 86 | 77 | > 289 | > 289 | > 20 | – | IC50 [2]: 26 nM; beta t1/2 [8]: < 30 min
CC(=O)N[C@H]1C/C=C/COc2ccc(cc2)C[C@@H](C(=O)N[C@@H](CCCNC(=N)N)C(=O)c2nc3ccccc3s2)NC(=O)[C@H](CC(C)C)NC1=O | 14 | 14 | 84 | 78 | > 289 | 286 | > 20 | 20 | IC50 [2]: > 20000 nM
CC(=O)N[C@H]1Cc2ccc(cc2)OCCCC[C@@H](C(=O)N[C@@H](CCCNC(=N)N)C(=O)c2nc3ccccc3s2)NC(=O)[C@H](Cc2c[nH]c3ccccc23)NC1=O | – | – | 78 | 67 | > 289 | 229 | – | 2.8 | –
CC(=O)N[C@H]1Cc2ccc(cc2)OC/C=C\CNC(=O)C[C@@H](C(=O)N[C@@H](CCCNC(=N)N)C(=O)c2nc3ccccc3s2)NC(=O)[C@H](CC(C)C)NC1=O | 22 | 54 | 95 | 81 | > 289 | > 289 | > 20 | – | Stability [10]: Stable
CC(=O)N[C@H]1Cc2ccc(cc2)OCCCC[C@@H](C(=O)N[C@@H](CCCNC(=N)N)C(=O)c2nc3ccccc3s2)NC(=O)[C@@H](Cc2c[nH]c3ccccc23)NC1=O | 3.7 | – | 100 | 53 | – | 117 | – | – | Stability [10]: Stable
CC(=O)N[C@H]1Cc2cccc(c2)Oc2ccc(cc2)C[C@@H](C(=O)N[C@@H](CCCNC(=N)N)C(=O)c2nc3ccccc3s2)NC(=O)[C@H](CC(C)C)NC1=O | 15 | – | – | – | – | – | – | – | –
CC(=O)N[C@H]1Cc2ccc(cc2)OC/C=C\CNC(=O)CC[C@@H](C(=O)N[C@@H](CCCNC(=N)N)C(=O)c2nc3ccccc3s2)NC(=O)[C@H](CC(C)C)NC1=O | – | – | 66 | 76 | 236 | > 289 | > 20 | – | –
CC(=O)N[C@H]1Cc2ccc(cc2)OCCCC[C@@H](C(=O)N[C@@H](CCCNC(=N)N)C(=O)c2nc3ccccc3s2)NC(=O)[C@H](CC(C)C)NC1=O | – | – | 98 | 79 | > 289 | > 289 | – | – | Stability [10]: Stable
CC(=O)N[C@H]1Cc2ccc(cc2)Oc2ccc(cc2)C[C@@H](C(=O)N[C@@H](CCCNC(=N)N)C(=O)c2nc3ccccc3s2)NC(=O)[C@H](CC(C)C)NC1=O | 1.2 | 180 | – | – | – | – | – | 7.5 | Ratio IC50 (Homo sapiens [11]): 200; IC50 [2]: 250 nM; Ratio IC50 (Homo sapiens [12]): 144; Ratio IC50 (Homo sapiens [13]): 6
CC(=O)N[C@H]1Cc2cn(nn2)CCCC[C@H](C(=O)N[C@@H](CCCNC(=N)N)C(=O)c2nc3ccccc3s2)NC(=O)[C@H](CC(C)C)NC1=O | – | – | 83 | 85 | > 289 | > 289 | – | – | –
CC(=O)N[C@H]1CCCCn2cc(nn2)C[C@H](C(=O)N[C@@H](CCCNC(=N)N)C(=O)c2nc3ccccc3s2)NC(=O)[C@H](CC(C)C)NC1=O | – | – | 82 | 83 | > 289 | > 289 | – | – | –
CC(=O)N[C@H]1Cc2ccc(cc2)OCCCC[C@@H](C(=O)N[C@@H](CCCNC(=N)N)C(=O)c2nc3ccccc3s2)NC(=O)[C@H](Cc2ccccc2)NC1=O | 16 | – | 80 | 65 | > 289 | 189 | – | – | –
CC(=O)N[C@H]1Cc2ccc(cc2)Oc2cccc(c2)C[C@@H](C(=O)N[C@@H](CCCNC(=N)N)C(=O)c2nc3ccccc3s2)NC(=O)[C@H](CC(C)C)NC1=O | – | – | – | – | – | – | 13 | 0.2 | t1/2 [14]: 4.5 h; Drug uptake [15]: Active

Source: ChEMBL document CHEMBL5518225, “Mechanism-Based Macrocyclic Inhibitors of Serine Proteases” (J Med Chem, 2024)
